Measurements: patent US8163702B2, “Treatment of melanoma” (SciClone Pharmaceuticals, Inc., priority 2006, dated 2012)

System: murine B16 melanoma
Experiment: Antitumor effect in murine B16 melanoma model, tumor size and tumor weight (Example 2)
Assay type: in vivo, C57BL/6 mice
Protocol: As per aseptic tissue culture procedures, one vial of B16 melanoma cells (supplied by Cell Culture Center of CAMS) was thawed and centrifuged at 1000 rpm, 20-25° C. for 5 minutes. The cell pellets were suspended in 0.1-0.5 mL normal saline (NS) and subcutaneously injected into the right axilla of each mouse (approximately 1×10^6 cells/mouse). When the tumor diameter was 1 cm approximately (measured by vernier caliper), the animals were euthanized with CO2 asphyxiation and the tumor was excised. Tumor cells were suspended in normal saline as previously described and the cell adaptation cycle was repeated once.
On Day 0, 1×10^6 B16 cells in a volume of 0.1 mL normal saline were subcutaneously injected into the right axillary area of the mouse. The day of tumor inoculation was defined as Day 0.
Dosing was initiated on Day 1.
Observations were recorded daily for mortality and moribundity. […] The tumors were excised, separated, and weighed.
Tumor volume was calculated using the following formula: Tumor Volume=Length×Width×Width/2 Tumor volume inhibition rate (IR) was calculated according to the formula: IR(TV)=(TVvehicle−TVdrug treated)/TVvehicle×100% TV is the tumor volume on the day of measurement.
The antitumor effect of the test article was also evaluated by tumor weight. The tumor weight of each mouse was recorded after euthanasia, and the inhibition rate of tumor weight was calculated according to the formula: IR(TW)=(Tumor weightvehicle−Tumor weightdrug treated)/Tumor weightvehicle×100%

[1] = Day 9, SCV-07 0.01 mg/kg/day sc
[2] = Day 9, mouse F1, SCV-07 0.1 mg/kg sc
[3] = Day 9, mouse F1, SCV-07 5.0 mg/kg sc
[4] = Day 9, mouse F2, SCV-07 0.01 mg/kg sc
[5] = Day 9, mouse F2, SCV-07 0.1 mg/kg sc
[6] = Day 9, mouse F2, SCV-07 1.0 mg/kg sc
[7] = Day 9, mouse F2, SCV-07 5.0 mg/kg sc
[8] = Day 9, mouse F3, SCV-07 0.1 mg/kg sc
[9] = Day 9, mouse F3, SCV-07 1.0 mg/kg sc
[10] = Day 9, mouse F4, SCV-07 0.01 mg/kg sc
[11] = Day 9, mouse F4, SCV-07 0.1 mg/kg sc
[12] = Day 9, mouse F4, SCV-07 1.0 mg/kg sc
[13] = Day 9, mouse F4, SCV-07 5.0 mg/kg sc
[14] = Day 9, mouse F5, SCV-07 0.01 mg/kg sc
[15] = Day 9, mouse F5, SCV-07 0.1 mg/kg sc
[16] = Day 9, mouse F5, SCV-07 1.0 mg/kg sc
[17] = Day 9, mouse F5, SCV-07 5.0 mg/kg sc
[18] = Day 9, mouse M1, SCV-07 0.01 mg/kg sc

Compound: N[C@H](CCC(=O)N[C@@H](Cc1c[nH]c2ccccc12)C(=O)O)C(=O)O [SCV-07, γ-D-glutamyl-L-tryptophan]
- Tumor Volume (Mean ± SD) (Day 3, SCV-07 0.01 mg/kg/day sc, not measurable defined as 0): 0 cm^3
- Tumor Volume (Mean ± SD) (Day 3, SCV-07 0.1 mg/kg/day sc, not measurable defined as 0): 0 cm^3
- Tumor Volume (Mean ± SD) (Day 3, SCV-07 1.0 mg/kg/day sc, not measurable defined as 0): 0 cm^3
- Tumor Volume (Mean ± SD) (Day 3, SCV-07 5.0 mg/kg/day sc, not measurable defined as 0): 0 cm^3
- Tumor Volume (Mean ± SD) (Day 6, SCV-07 0.01 mg/kg/day sc, not measurable defined as 0): 0 cm^3
- Tumor Volume (Mean ± SD) (Day 6, SCV-07 0.1 mg/kg/day sc, not measurable defined as 0): 0 cm^3
- Tumor Volume (Mean ± SD) (Day 6, SCV-07 1.0 mg/kg/day sc, not measurable defined as 0): 0 cm^3
- Tumor Volume (Mean ± SD) (Day 6, SCV-07 5.0 mg/kg/day sc, not measurable defined as 0): 0 cm^3
- IR (tumor volume inhibition rate) [1]: −4.3%
- Tumor Volume (Mean ± SD) [1]: 0.045 ± 0.042 cm^3
- IR (tumor volume inhibition rate) (Day 9, SCV-07 0.1 mg/kg/day sc): 11.5%
- Tumor Volume (Mean ± SD) (Day 9, SCV-07 0.1 mg/kg/day sc): 0.039 ± 0.038 cm^3
- IR (tumor volume inhibition rate) (Day 9, SCV-07 1.0 mg/kg/day sc): 19.7%
- Tumor Volume (Mean ± SD) (Day 9, SCV-07 1.0 mg/kg/day sc): 0.035 ± 0.036 cm^3
- IR (tumor volume inhibition rate) (Day 9, SCV-07 5.0 mg/kg/day sc): −11.0%
- Tumor Volume (Mean ± SD) (Day 9, SCV-07 5.0 mg/kg/day sc): 0.048 ± 0.036 cm^3
- Tumor measurements L [2]: 0.5 cm
- Tumor measurements W [2]: 0.5 cm
- Tumor volumes [2]: 0.06 cm^3
- Tumor measurements L [3]: 0.5 cm
- Tumor measurements W [3]: 0.5 cm
- Tumor volumes [3]: 0.06 cm^3
- Tumor measurements L [4]: 0.5 cm
- Tumor measurements W [4]: 0.5 cm
- Tumor volumes [4]: 0.06 cm^3
- Tumor measurements L [5]: 0.5 cm
- Tumor measurements W [5]: 0.5 cm
- Tumor volumes [5]: 0.06 cm^3
- Tumor measurements L [6]: 0.5 cm
- Tumor measurements W [6]: 0.5 cm
- Tumor volumes [6]: 0.06 cm^3
- Tumor measurements L [7]: 0.5 cm
- Tumor measurements W [7]: 0.5 cm
- Tumor volumes [7]: 0.06 cm^3
- Tumor measurements L [8]: 0.5 cm
- Tumor measurements W [8]: 0.5 cm
- Tumor volumes [8]: 0.06 cm^3
- Tumor measurements L [9]: 0.6 cm
- Tumor measurements W [9]: 0.6 cm
- Tumor volumes [9]: 0.11 cm^3
- Tumor measurements L [10]: 0.5 cm
- Tumor measurements W [10]: 0.5 cm
- Tumor volumes [10]: 0.06 cm^3
- Tumor measurements L [11]: 0.6 cm
- Tumor measurements W [11]: 0.6 cm
- Tumor volumes [11]: 0.11 cm^3
- Tumor measurements L [12]: 0.3 cm
- Tumor measurements W [12]: 0.3 cm
- Tumor volumes [12]: 0.01 cm^3
- Tumor measurements L [13]: 0.6 cm
- Tumor measurements W [13]: 0.6 cm
- Tumor volumes [13]: 0.11 cm^3
- Tumor measurements L [14]: 0.6 cm
- Tumor measurements W [14]: 0.6 cm
- Tumor volumes [14]: 0.11 cm^3
- Tumor measurements L [15]: 0 cm
- Tumor measurements W [15]: 0 cm
- Tumor volumes [15]: 0.00 cm^3
- Tumor measurements L [16]: 0.5 cm
- Tumor measurements W [16]: 0.5 cm
- Tumor volumes [16]: 0.06 cm^3
- Tumor measurements L [17]: 0.5 cm
- Tumor measurements W [17]: 0.5 cm
- Tumor volumes [17]: 0.06 cm^3
- Tumor measurements L [18]: 0.6 cm
- Tumor measurements W [18]: 0.6 cm
- Tumor volumes [18]: 0.11 cm^3
- Tumor measurements L (Day 9, mouse M1, SCV-07 0.1 mg/kg sc): 0.3 cm
